For 14 molecules, IC50 results are on record in patent publication US20250313548A1 (Actio Biosciences, Inc., priority 2023, published 2025).

SMILES strings stand for the structures.

Chain of human, KCNT1 (Q5JUK3 whole entry): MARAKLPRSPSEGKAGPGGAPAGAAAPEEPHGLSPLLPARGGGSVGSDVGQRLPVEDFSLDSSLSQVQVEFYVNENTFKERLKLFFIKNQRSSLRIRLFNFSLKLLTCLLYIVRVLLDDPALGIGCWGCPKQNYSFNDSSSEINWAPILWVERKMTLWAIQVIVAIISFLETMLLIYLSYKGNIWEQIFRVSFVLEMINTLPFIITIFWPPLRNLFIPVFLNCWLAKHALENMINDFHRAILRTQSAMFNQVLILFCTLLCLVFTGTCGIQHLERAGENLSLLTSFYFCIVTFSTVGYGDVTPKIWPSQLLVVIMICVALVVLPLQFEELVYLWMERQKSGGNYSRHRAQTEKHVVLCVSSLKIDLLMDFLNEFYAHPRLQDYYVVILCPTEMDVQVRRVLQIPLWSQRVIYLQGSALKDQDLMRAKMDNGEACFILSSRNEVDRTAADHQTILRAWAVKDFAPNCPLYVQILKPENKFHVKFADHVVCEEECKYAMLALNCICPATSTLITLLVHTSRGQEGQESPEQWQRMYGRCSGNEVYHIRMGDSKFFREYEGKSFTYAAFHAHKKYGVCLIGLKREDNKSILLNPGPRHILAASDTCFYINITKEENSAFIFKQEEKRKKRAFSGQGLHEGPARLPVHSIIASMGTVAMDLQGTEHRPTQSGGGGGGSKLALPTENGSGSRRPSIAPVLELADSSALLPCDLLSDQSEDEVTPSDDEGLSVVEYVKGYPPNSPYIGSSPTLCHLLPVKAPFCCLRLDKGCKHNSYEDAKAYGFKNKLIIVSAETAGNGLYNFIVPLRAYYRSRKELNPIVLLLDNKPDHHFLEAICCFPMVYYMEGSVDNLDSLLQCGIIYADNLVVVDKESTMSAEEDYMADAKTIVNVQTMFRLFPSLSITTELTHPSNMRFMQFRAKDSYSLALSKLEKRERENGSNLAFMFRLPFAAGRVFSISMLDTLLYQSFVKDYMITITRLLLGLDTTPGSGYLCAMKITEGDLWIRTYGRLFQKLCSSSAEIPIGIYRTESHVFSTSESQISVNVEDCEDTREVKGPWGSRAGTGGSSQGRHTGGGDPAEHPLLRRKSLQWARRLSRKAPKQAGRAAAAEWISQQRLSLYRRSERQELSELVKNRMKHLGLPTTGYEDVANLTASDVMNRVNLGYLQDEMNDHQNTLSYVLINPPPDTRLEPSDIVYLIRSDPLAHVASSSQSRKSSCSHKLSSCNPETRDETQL

This test deals with human, KCNT1 (Homo sapiens (Human), UniProt Q5JUK3). In words: FLIPR Tl/K Flux Assay. Format: cell-based. Particulars: HEK293 cells stably expressing human KCNT1; Tl+ flux stimulated with EC80 of agonist Loxapine. The method, boiled down:
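Inhibition values come from a Hill-equation fit of % inhibition versus log concentration, using normalized fluorescence (Fmax/Fmin) over a 160 s read. The read followed stimulation with Tl+ plus EC80 agonist loxapine after 30 min compound pre-incubation at 25 °C. Cells were KCNT1-expressing HEK293, dye-loaded 1 h in pH 7.4 HEPES/HBSS with 5 mM probenecid.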
Consider `O=C(N[C@H]1CCCn2nc(-c3ccnc(C(F)(F)F)c3)cc21)c1ccc(F)c(OC(F)(F)F)c1` [Compound I-411a], for which the IC50 was < 250 nM.
As for `O=C(N[C@H]1CCCn2nc(-c3ccnc(C(F)(F)F)c3)cc21)c1cccc(C(F)(F)F)c1F` [Compound I-419a], the IC50 is < 250 nM.
Consider `Cn1nc(C(F)(F)F)nc1C(=O)N[C@H]1CCCCn2nc(-c3ccnc(C(F)(F)F)c3)cc21` [Compound I-324a, (S)-1-Methyl-3-(trifluoromethyl)-N-(2-(2-(trifluoromethyl)pyridin-4-yl)-5,6,7,8-tetrahydro-4H-pyrazolo[1,5-a]azepin-4-yl)-1H-1,2,4-triazole-5-carboxamide], for which the IC50 is < 250 nM.
With `O=C(N[C@H]1CCn2nc(-c3ccnc(C(F)(F)F)c3)cc21)c1cnn(C(F)(F)F)c1` [Compound I-573a, (S)-1-(Trifluoromethyl)-N-(2-(2-(trifluoromethyl)pyridin-4-yl)-5,6-dihydro-4H-pyrrolo[1,2-b]pyrazol-4-yl)-1H-pyrazole-4-carboxamide], the IC50 is < 250 nM.
`Cc1nc(C(F)(F)F)oc1C(=O)N[C@H]1CCc2cnc(-c3ccnc(C(F)(F)F)c3)cc21` [Compound I-192a, (S)-4-Methyl-2-(trifluoromethyl)-N-(3-(2-(trifluoromethyl)pyridin-4-yl)-6,7-dihydro-5H-cyclopenta[c]pyridin-5-yl)oxazole-5-carboxamide]: the IC50 lay in the range of 250 to 500 nM.
As to `O=C(N[C@H]1CCCc2oc(-c3ccnc(C4CC4)c3)nc21)c1cncc(F)c1` [Compound I-132a, (S)-N-(2-(2-Cyclopropylpyridin-4-yl)-4,5,6,7-tetrahydrobenzo[d]oxazol-4-yl)-5-fluoronicotinamide], the IC50 was < 250 nM.
To `Cn1nc(C(F)(F)F)cc1C(=O)N[C@H]1CCc2ncc(-c3ccnc(C(F)(F)F)c3)cc21` [Compound I-460a] belongs > 1000 nM; to `Cn1cc(C(=O)N[C@H]2CCCn3nc(-c4ccnc(C(F)(F)F)c4)cc32)c(C(F)(F)F)c1` (single isomer, unassigned) [Compound I-409a], < 250 nM.
As for `CC(F)(F)c1cc(-c2cc3n(n2)CC[C@@H]3NC(=O)c2cnn(C(F)(F)F)c2)ccn1` [Compound I-538a, (S)-N-(2-(2-(1,1-Difluoroethyl)pyridin-4-yl)-5,6-dihydro-4H-pyrrolo[1,2-b]pyrazol-4-yl)-1-(trifluoromethyl)-1H-pyrazole-4-carboxamide], the IC50 is < 250 nM.
In the case of `Cn1nc(C(F)(F)F)cc1C(=O)N[C@H]1CCc2nc(-c3ccnc(C(F)(F)F)c3)ccc21` [Compound I-134a, (S)-1-Methyl-3-(trifluoromethyl)-N-(2-(2-(trifluoromethyl)pyridin-4-yl)-6,7-dihydro-5H-cyclopenta[b]pyridin-5-yl)-1H-pyrazole-5-carboxamide], the IC50 is < 250 nM.
The result for `O=C(N[C@H]1CCCn2nc(-c3cc(C(F)(F)F)ncc3F)cc21)c1cncc(C(F)(F)F)n1` [Compound I-204a, (S)-N-(2-(5-Fluoro-2-(trifluoromethyl)pyridin-4-yl)-4,5,6,7-tetrahydropyrazolo[1,5-a]pyridin-4-yl)-6-(trifluoromethyl)pyrazine-2-carboxamide] reads < 250 nM.
With `CCOc1cc(-c2cc3n(n2)CCC[C@@H]3NC(=O)c2cc(F)cc(C#N)c2)ccn1` [Compound I-252a, (S)-3-Cyano-N-(2-(2-ethoxypyridin-4-yl)-4,5,6,7-tetrahydropyrazolo[1,5-a]pyridin-4-yl)-5-fluorobenzamide], the IC50 is < 250 nM.
As for `COc1cc(-n2cc3c(n2)CC[C@@H]3NC(=O)c2cc(F)cc(F)c2)ccn1` [Compound I-446a], the IC50 is < 250 nM.
Turning to `O=C(N[C@H]1CCCn2nc(-c3cc(C(F)(F)F)ncc3F)cc21)c1ccnc(OC(F)(F)F)c1` [Compound I-199a, (S)-N-(2-(5-Fluoro-2-(trifluoromethyl)pyridin-4-yl)-4,5,6,7-tetrahydropyrazolo[1,5-a]pyridin-4-yl)-2-(trifluoromethoxy)isonicotinamide], the IC50 is < 250 nM.
